One test deals with ALK3 (Homo sapiens, UniProt P36894). The test is described as follows: TR-FRET enzymatic ALK kinase assay, ALK3. On the technique in general: TR-FRET usually uses a lanthanide donor and a delayed reading to cut background.
The target of test [1] is T1, ALK2 (Mus musculus, UniProt P37172).
T1 construct: The C2C12 cell line was selected for the measurement of ALK2 activity using BMP6 as the agonist; host or cells: C2C12
T1 sequence (P37172 21-509): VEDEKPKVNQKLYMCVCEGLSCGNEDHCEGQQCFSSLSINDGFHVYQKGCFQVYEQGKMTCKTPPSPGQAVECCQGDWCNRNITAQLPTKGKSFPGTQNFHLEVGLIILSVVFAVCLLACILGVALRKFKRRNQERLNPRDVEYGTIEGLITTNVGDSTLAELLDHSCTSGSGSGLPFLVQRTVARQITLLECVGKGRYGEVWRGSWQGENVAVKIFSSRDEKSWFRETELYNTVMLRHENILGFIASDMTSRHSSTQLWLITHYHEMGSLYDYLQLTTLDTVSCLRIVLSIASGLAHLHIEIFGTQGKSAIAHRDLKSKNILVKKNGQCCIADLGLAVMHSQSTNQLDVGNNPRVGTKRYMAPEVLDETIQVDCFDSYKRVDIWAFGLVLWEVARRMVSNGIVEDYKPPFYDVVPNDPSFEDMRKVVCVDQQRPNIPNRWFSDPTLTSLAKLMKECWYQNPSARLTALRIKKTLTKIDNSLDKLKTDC
Description: HTRF pSMAD1 cell-based ALK2 assay (C2C12 cells, BMP6 as agonist). The conditions noted are these: cell-based assay, BMP6; read-out: Cell IC50 BMP6. On the procedure:
2. HTRF Cell-Based ALK1 and ALK2 Assays in 384-Well Plate Format We have developed a cell based ALK1 kinase assay and a cell-based ALK2 assay. The BAOEC cell line was employed for the measurement of ALK1 activity using BMP9 as the agonist. The C2C12 cell line was selected for the measurement of ALK2 activity using BMP6 as the agonist. The kinase specificity was defined by the specific cell line and agonist. The kinase activity was determined by the status of SMD 1/5/8 phosphorylation stimulated by the agonist.
HyClone Fetal Bovine Serum was obtained from GE healthcare life sciences (Logan, Utah). BMP6 and BMP9 were purchased from R&D System. […] The compound plates and the white solid MB assay plates were purchased from Greiner Bio-one (Monroe, N.C.).
HTRF optimization experiments were performed in 384 well plate format. […] Pre-starved cells were then plated in 384 well plate in the starvation medium (containing in 0.1% FBS). After 4 hours, compounds were added to the assay plate and incubated for 30 minutes. The assay plate was then added with BMP6 for C2C12 cells or BMP9 for BAOEC cells and incubated for 30 minutes.
HTRF assay was performed to measure the status of SMAD 1 phosphorylation after stimulated with the agonist (Table 3). This HTRF phospho SMAD1 cell assay was developed and optimized for the homogenous detection of phospho SMAD 1 levels in cells. […] The plate was incubated at room temperature for overnight.

The target of another test is T2, ALK5 (Homo sapiens, UniProt P36897).
T2 sequence (P36897 34-503): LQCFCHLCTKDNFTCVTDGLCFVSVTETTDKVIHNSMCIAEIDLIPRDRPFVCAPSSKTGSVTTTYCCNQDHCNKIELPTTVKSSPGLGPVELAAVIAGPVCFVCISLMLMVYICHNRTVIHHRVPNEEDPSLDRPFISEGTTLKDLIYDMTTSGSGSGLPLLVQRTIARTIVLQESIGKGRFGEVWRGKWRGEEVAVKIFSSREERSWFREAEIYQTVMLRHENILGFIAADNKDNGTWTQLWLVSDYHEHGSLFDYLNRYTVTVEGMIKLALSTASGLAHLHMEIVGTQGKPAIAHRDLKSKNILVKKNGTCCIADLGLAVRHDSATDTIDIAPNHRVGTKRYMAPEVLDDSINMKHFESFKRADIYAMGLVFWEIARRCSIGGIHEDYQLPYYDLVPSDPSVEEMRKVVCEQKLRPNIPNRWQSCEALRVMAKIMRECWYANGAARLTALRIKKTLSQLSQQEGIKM
Description: TR-FRET enzymatic ALK kinase assay, ALK5.

The next test deals with ALK6 (Homo sapiens, UniProt O00238). The test is described as follows: TR-FRET enzymatic ALK kinase assay, ALK6.
ALK6, sequence (O00238 14-502): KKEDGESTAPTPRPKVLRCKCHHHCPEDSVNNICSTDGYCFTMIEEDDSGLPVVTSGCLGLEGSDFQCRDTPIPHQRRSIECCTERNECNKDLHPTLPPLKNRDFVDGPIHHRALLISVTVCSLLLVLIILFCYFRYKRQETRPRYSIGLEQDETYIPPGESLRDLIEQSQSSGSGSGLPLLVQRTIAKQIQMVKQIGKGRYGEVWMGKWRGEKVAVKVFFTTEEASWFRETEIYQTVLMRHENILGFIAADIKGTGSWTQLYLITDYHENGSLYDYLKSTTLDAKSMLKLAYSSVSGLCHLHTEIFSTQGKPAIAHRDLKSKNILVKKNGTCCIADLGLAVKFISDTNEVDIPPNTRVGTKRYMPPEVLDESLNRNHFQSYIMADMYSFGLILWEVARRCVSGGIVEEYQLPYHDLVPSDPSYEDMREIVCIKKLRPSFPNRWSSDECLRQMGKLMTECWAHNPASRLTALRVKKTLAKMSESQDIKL
Test [2] deals with T3, ALK2 (Homo sapiens, UniProt Q04771).
T3 sequence (Q04771 21-509): T1 sequence (P37172 21-509) with V1M, Q10P, I121L, E162D, S310P
The test is described as follows: TR-FRET enzymatic ALK kinase assay, ALK2.
Description: (§1) Briefly, the ALKs enzymatic assay was initiated by dispense 2.5 μl enzyme in 1× kinase reaction buffer. The assay plate was then added with compounds followed by incubation at room temperature for 10 minutes. Then 2.5 μl/well substrate was added.

In a further test the target is T4, ALK4 (Homo sapiens, UniProt P36896).
T4 sequence (P36896 24-505): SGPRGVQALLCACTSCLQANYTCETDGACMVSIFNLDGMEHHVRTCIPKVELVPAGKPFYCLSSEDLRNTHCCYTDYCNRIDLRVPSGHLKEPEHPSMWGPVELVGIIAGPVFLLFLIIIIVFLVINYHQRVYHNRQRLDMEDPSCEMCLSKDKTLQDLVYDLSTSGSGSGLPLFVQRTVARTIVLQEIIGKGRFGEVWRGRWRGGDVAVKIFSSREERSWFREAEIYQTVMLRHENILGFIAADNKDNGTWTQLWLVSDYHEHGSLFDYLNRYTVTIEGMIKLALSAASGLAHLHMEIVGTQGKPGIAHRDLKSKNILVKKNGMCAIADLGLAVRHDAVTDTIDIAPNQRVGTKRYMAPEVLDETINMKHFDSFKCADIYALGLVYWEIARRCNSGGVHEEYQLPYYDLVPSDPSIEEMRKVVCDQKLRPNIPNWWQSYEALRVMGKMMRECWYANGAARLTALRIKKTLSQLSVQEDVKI
The test is described as follows: TR-FRET enzymatic ALK kinase assay, ALK4.

The target in the next test is ALK1 (Homo sapiens, UniProt P37023). Description: TR-FRET enzymatic ALK kinase assay, ALK1.
ALK1, sequence (P37023 22-503): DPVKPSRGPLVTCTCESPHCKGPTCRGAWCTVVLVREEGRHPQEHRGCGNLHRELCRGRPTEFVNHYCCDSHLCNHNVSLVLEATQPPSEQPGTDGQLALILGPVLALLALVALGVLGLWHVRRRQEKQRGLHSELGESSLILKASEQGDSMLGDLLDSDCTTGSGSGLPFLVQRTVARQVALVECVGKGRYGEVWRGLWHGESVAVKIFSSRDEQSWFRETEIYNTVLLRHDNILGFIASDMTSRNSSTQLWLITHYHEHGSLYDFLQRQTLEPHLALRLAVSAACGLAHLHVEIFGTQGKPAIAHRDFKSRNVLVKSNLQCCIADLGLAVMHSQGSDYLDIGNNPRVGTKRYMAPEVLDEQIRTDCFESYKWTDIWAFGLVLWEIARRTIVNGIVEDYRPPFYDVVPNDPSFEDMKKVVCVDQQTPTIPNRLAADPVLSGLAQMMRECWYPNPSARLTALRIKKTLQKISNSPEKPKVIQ

One may read the pIC50 as the negative decadic logarithm of the IC50, by convention in mol/L.

Numbering of substitutions follows the chain as printed. pIC50: −log10 of the molar value.

ALK3, sequence (P36894 24-532): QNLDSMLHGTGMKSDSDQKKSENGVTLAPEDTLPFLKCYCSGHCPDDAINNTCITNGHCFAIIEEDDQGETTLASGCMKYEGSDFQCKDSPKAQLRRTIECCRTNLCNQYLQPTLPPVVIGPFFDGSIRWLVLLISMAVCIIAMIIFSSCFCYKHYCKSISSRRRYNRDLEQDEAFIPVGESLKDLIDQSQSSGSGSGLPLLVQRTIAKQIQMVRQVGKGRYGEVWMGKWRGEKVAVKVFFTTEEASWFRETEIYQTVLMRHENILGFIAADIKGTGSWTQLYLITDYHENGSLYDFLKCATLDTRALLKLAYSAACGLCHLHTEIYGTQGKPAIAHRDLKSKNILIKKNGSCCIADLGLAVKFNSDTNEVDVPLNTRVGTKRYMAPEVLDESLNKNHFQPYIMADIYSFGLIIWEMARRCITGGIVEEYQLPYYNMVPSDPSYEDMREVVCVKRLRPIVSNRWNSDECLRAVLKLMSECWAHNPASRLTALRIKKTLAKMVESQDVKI
Description for ALK1: as §1
Description for ALK3: as §1
Description for ALK4: as §1
Description for ALK5: Six ALK kinase enzyme assays were developed for determination of compound activities on ALK1, ALK2, ALK3, ALK4, ALK5 and ALK6.
as §1
Description for ALK6: as §1

For `CN1CCN(c2ccc(-c3cnc4c(-c5ccc(S(N)(=O)=O)c6ccccc56)cnn4c3)cn2)CC1` [Compound 48, 4-(6-(6-(4-methylpiperazin-1-yl)pyridin-3-yl)pyrazolo[1,5-a]pyrimidin-3-yl)naphthalene-1-sulfonamide], the pIC50 at ALK3 was less than 5.00; at ALK2 [1], 4.92; at ALK5 it was less than 5.00; against ALK6, less than 5.00; at ALK2 [2], 6.25; against ALK4, less than 5.00. At ALK1, this compound showed a negative-log IC50 (pIC50) of 5.41.
On to `C[C@@H]1CNC[C@H](C)N1c1ccc(-c2cnc3c(-c4ccc([S+](N)(=O)[O-])c(C(F)(F)F)c4)cnn3c2)cc1` [Compound 53, 4-(6-(4-((2R,6S)-2,6-dimethylpiperazin-1-yl)phenyl)pyrazolo[1,5-a]pyrimidin-3-yl)-2-(trifluoromethyl)benzenesulfonamide], for which the pIC50 on ALK3 was less than 5.00; on ALK2 [1], 6.50; against ALK5 it was less than 5.00; on ALK6 it was less than 5.00; at ALK2 [2], 6.42; against ALK4, less than 5.00. Moreover, the pIC50 against ALK1 is 5.54.
On to `Cc1ccc(-c2cnn3cc(-c4ccc(N5[C@H](C)CNC[C@@H]5C)cc4)cnc23)cc1S(N)(=O)=O` [Compound 55, 5-(6-(4-((2R,6S)-2,6-dimethylpiperazin-1-yl)phenyl)pyrazolo[1,5-a]pyrimidin-3-yl)-2-methylbenzenesulfonamide], for which the negative logarithm of the IC50 (pIC50) at ALK3 was less than 5.00; at ALK2 [1] it was 5.32; on ALK5 it was less than 5.00; at ALK6, less than 5.00; against ALK2 [2], 6.72; against ALK4 it was less than 5.00. The compound also showed a pIC50 on ALK1 of 6.10.
For `NS(=O)(=O)c1ccc(-c2cnn3cc(-c4ccc(C5(O)CCNCC5)nc4)cnc23)c2ccccc12` [Compound 56, 4-(6-(6-(4-hydroxypiperidin-4-yl)pyridin-3-yl)pyrazolo[1,5-a]pyrimidin-3-yl)naphthalene-1-sulfonamide], the pIC50 on ALK3 was less than 5.00; on ALK2 [1], 4.22; at ALK5, less than 5.00; against ALK6, less than 5.00; against ALK2 [2] it was 6.46; on ALK4 it was less than 5.00. This compound also had a pIC50 against ALK1 of 6.05.
Regarding `C[C@@H]1CNC[C@H](C)N1c1ccc(-c2cnc3c(-c4cc(N)cc5ccccc45)cnn3c2)cc1` [Compound 58, 4-(6-(4-((2R,6S)-2,6-dimethylpiperazin-1-yl)phenyl)pyrazolo[1,5-a]pyrimidin-3-yl)naphthalen-2-amine], the pIC50 on ALK3 was 6.43; on ALK2 [1] it was 7.05; at ALK5, less than 5.00; against ALK6, 6.02; at ALK2 [2] it was 7.44; on ALK4, 5.21. In addition, on ALK1, the negative-log IC50 (pIC50) was 7.14.
As to `C[C@@H]1CNC[C@H](C)N1c1ccc(-c2cnc3c(-c4ccc(N)c5ccccc45)cnn3c2)cc1` [Compound 59, 4-(6-(4-((2R,6S)-2,6-dimethylpiperazin-1-yl)phenyl)pyrazolo[1,5-a]pyrimidin-3-yl)naphthalen-1-amine], the pIC50 against ALK3 is 6.05; on ALK2 [1] it was 6.55; at ALK5, less than 5.00; at ALK6, 5.60; on ALK2 [2], 7.37; at ALK4, 5.39. For the same compound, the pIC50 against ALK1 is 6.85.
Consider `CN(C)CCOc1ccc(-c2cnc3c(-c4ccc(S(N)(=O)=O)c5ccccc45)cnn3c2)cc1` [Compound 61, 4-(6-(4-(2-(dimethylamino)ethoxy)phenyl)pyrazolo[1,5-a]pyrimidin-3-yl)naphthalene-1-sulfonamide], for which the pIC50 against ALK3 was less than 5.00; at ALK2 [1] it was 5.66; against ALK5, less than 5.00; against ALK6, less than 5.00; against ALK2 [2] it was 6.96; against ALK4 it was less than 5.00. On ALK1, this compound gave a negative-log IC50 (pIC50) of 6.33.
Take `CN1CCN(c2ccc(-c3cnc4c(-c5ccc(S(N)(=O)=O)c6ccccc56)cnn4c3)cc2)CC1` [Compound 62, 4-(6-(4-(4-methylpiperazin-1-yl)phenyl)pyrazolo[1,5-a]pyrimidin-3-yl)naphthalene-1-sulfonamide]: the pIC50 against ALK3 is less than 5.00; at ALK2 [1], 5.52; against ALK5, less than 5.00; at ALK6, less than 5.00; at ALK2 [2], 7.13; against ALK4, less than 5.00. This compound showed a negative-log IC50 (pIC50) on ALK1 of 6.85.
In the case of `NS(=O)(=O)c1ccc(-c2cnn3cc(-c4ccc(C5(O)CCNCC5)cc4)cnc23)c2ccccc12` [Compound 66, 4-(6-(4-(4-hydroxypiperidin-4-yl)phenyl)pyrazolo[1,5-a]pyrimidin-3-yl)naphthalene-1-sulfonamide], the pIC50 was less than 5.00 on ALK3; 5.00 on ALK2 [1]; less than 5.00 against ALK5; less than 5.00 against ALK6; 7.17 against ALK2 [2]; less than 5.00 at ALK4. In addition, the negative logarithm of the IC50 (pIC50) against ALK1 was 6.74.
As to `C[C@@H]1CNC[C@H](C)N1c1ccc(-c2cnc3c(-c4cccc(C(N)=O)c4)cnn3c2)cc1` [Compound 67, 3-(6-(4-((2R,6S)-2,6-dimethylpiperazin-1-yl)phenyl)pyrazolo[1,5-a]pyrimidin-3-yl)benzamide], the negative logarithm of the IC50 (pIC50) on ALK3 is 6.51; on ALK2 [1], 6.81; against ALK5 it was 5.08; on ALK6, 5.68; against ALK2 [2] it was 7.48; against ALK4, 5.59. The compound also had a negative-log IC50 (pIC50) at ALK1 of 7.08.

The values are drawn from patent US10513521B2, “Compositions and methods for inhibiting BMP” (The Brigham and Women's Hospital, Inc., priority 2014, dated 2019).
